EP3231799A1, “4-(AZETIDIN-1-YL)PYRIMIDINE DERIVATIVES WITH ANTI-MITOTIC AND ANTI-PROLIFERATIVE ACTIVITY” (Universität Basel, priority 2016, dated 2017)
Like-named read-outs stand apart in the source and are kept apart here.

Test system: A2058 melanoma cells
Experiment: Mitotic arrest (microtubule binding) in A2058 melanoma cells, high-content microscopy
Assay type: cell-based
Details: Homo sapiens, inhibitors 1 - 0.008 µM for 24 hours, mean value of at least four experiments
Procedure: Microtubule binding of compounds of formula (I) was determined in A2058 melanoma cells measuring mitotic arrest in high-throughput, high-content microscopic approaches. Microtubule networks or their depolymerization were visualized in parallel. Cellular tests are beneficial to address the biological question of tubulin binding, but also indirectly measure the uptake of a compound by cells. A hallmark of microtubule modifying agents (stabilizing or de-stabilizing) is a mitotic arrest cell cycle arrest of dividing cells, which was measured using the following protocol: • Cell preparation: 5000 A2058 cells were seeded in 100 µl complete DMEM into 96-well plates (Cell Carrier, Perkin Elmer) the day before inhibitor treatment. Cells were exposed to inhibitors (ranging from 1 - 0.008 µM) for 24 hours and fixed by addition of half a volume 10% PFA in PBS (30 min., RT). Cells were permeabilized and stained with Hoechst33324 by addition of 1:10 volume of 1%BSA/1% Triton X-100, 10 µM Hoechst33324 in PBS (30 min., RT), followed by a first image acquisition. Subsequently cells were additionally stained with rabbit anti pSer^10 Histone H3 (Cell Signaling Technologies) and rat anti-α-tubulin (Santa Cruz Technologies, overnight, 4 °C, shaking). Cells were washed and incubated with Alexa 488 conjugated goat anti rat IgG, Alexa 647 conjugated goat anti rabbit IgG antibodies (Life Technologies) and 1 µM Hoechst33324 in 1% BSA/0.1% Triton X-100/1x PBS (shaking; RT; dark), followed by 3 wash cycles and a 2nd round of imaging. • Image acquisition: Fluorescent microscopy images were acquired on an Operetta high content analysis system (Perkin Elmer). 35 fields of view/well were acquired as wide field images (20xWD objective). 1st acquisition: Nuclear DNA content and DNA morphology was imaged using the DAPI filter set. 2nd acquisition: Nuclear DNA, phosphorylated Histone H3 and α-tubulin images were acquired using DAPI, Alexa488 and Alexa647 filter sets. • Image analysis: Images were batch analysed using Columbus software (PerkinElmer). Analyses were run including single cell analysis mode. The total number of nuclei was determined in the DAPI channel. Nuclear DNA was classified into "normal" or "condensed" using a linear classifier mode. The percentage of cells with condensed DNA was calculated for each well (% condensed = (# condensed/ # total) *100). The fraction of cells with pSer10 Histone H3 positive nuclei was determined using Hoechst33342 and Alexa647 signals. 1st the nuclei were identified using DNA staining (Hoechst33342; excluding nuclei at image borders). 2nd the identified nuclei were classified positive or negative for pSer10 Histone H3 by two filters using the "filter by properties" mode based on Alexa 647 intensities. Alexa 647 filter properties were i) mean intensities above threshold /nucleus and ii) a maximum intensity above threshold. Calculation: % Alexa 647^positive = (# Alexa 647^positive / # selected nuclei) *100.
The percentage of cells with condensed DNA and the percentage of pSer10 Histone H3 positive nuclei were blotted as function of inhibitor concentration (log scale) using GraphPad Prism. Half maximal effective concentrations (EC50) of inhibitors were determined using GraphPad's "non-linear regression with variable slope" formula (Y=Bottom + (Top-Bottom)/(1+10^((LogEC50-X)*HillSlope))). Table 1: Effect of selected formula (I) compounds on mitotic arrest in A2058 cells. Half-maximal effective concentrations are given as mean value of at least four experiments for the indicated cellular phenotypes.

[1] = percentage of cells with condensed DNA, read-out: Half-maximal effective concentrations (EC50), Condensed DNA
[2] = percentage of pSer10 Histone H3 positive nuclei, read-out: Half-maximal effective concentrations (EC50), pSer10 Histone H3

Row | EC50 [1] | EC50 [2] | SMILES
1 | 71 nM | 151 nM | Nc1cc(C(F)(F)F)c(-c2cc(N3CC(F)C3)nc(N3CCOCC3)n2)cn1 [Compound 2, 5-(6-(3-fluoroazetidin-1-yl)-2-morpholinopyrimidin-4-yl)-4-(trifluoromethyl)pyridin-2-amine]
2 | 129 nM | 127 nM | Nc1cc(C(F)(F)F)c(-c2cc(N3CC(F)(F)C3)nc(N3CCC(=O)CC3)n2)cn1 [Compound 76, 1-(4-(6-amino-4-(trifluoromethyl)pyridin-3-yl)-6-(3,3-difluoroazetidin-1-yl)pyrimidin-2-yl)piperidin-4-one]
3 | 65 nM | 79 nM | Nc1cc(C(F)(F)F)c(-c2cc(N3CC(F)(F)C3)nc(N3CCOCC3)n2)cn1 [Compound 4, 5-(6-(3,3-difluoroazetidin-1-yl)-2-morpholinopyrimidin-4-yl)-4-(trifluoromethyl)pyridin-2-amine]
4 | 70 nM | 73 nM | Nc1ncc(-c2cc(N3CC(F)(F)C3)nc(N3CCOCC3)n2)c(C(F)(F)F)n1 [Compound 8, 6-(3,3-difluoroazetidin-1-yl)-2-morpholino-4'-(trifluoromethyl)-[4,5'-bipyrimidin]-2'-amine]
5 | 111 nM | 115 nM | C[C@@H]1COCCN1c1nc(-c2cnc(N)cc2C(F)(F)F)cc(N2CC(F)(F)C2)n1 [Compound 16, (R)-5-(6-(3,3-difluoroazetidin-1-yl)-2-(3-methylmorpholino)pyrimidin-4-yl)-4-(trifluoromethyl)pyridin-2-amine]
6 | 79 nM | 80 nM | Nc1cc(C(F)(F)F)c(-c2cc(N3CCC3)nc(N3CCOCC3)n2)cn1 [Compound 1, 5-(6-(azetidin-1-yl)-2-morpholinopyrimidin-4-yl)-4-(trifluoromethyl)pyridin-2-amine]
7 | 92 nM | – | CC1CN(c2cc(-c3cnc(N)cc3C(F)(F)F)nc(N3CCOCC3)n2)C1 [Compound 3, 5-(6-(3-methylazetidin-1-yl)-2-morpholinopyrimidin-4-yl)-4-(trifluoromethyl)pyridin-2-amine]
8 | 128 nM | 135 nM | Nc1cc(C(F)(F)F)c(-c2cc(N3CC(F)(F)C3)nc(N3CCC(O)CC3)n2)cn1 [Compound 40, 1-(4-(6-amino-4-(trifluoromethyl)pyridin-3-yl)-6-(3,3-difluoroazetidin-1-yl)pyrimidin-2-yl)piperidin-4-ol]
